Measured values taken from US11236087B2, “Highly active pyrazolo-piperidine substituted indole-2-carboxamides active against the hepatitis B virus (HBV)” (AiCuris GmbH & Co. KG, priority 2017, dated 2022).
Where two headings read alike, the source gives them in different places.

Assays:
HBV core protein = target: T1, HBV core protein (UniProt P03146); test: Biochemical capsid assembly assay (fluorescence quenching); design: species or system hepatitis B virus; conditions: read-out: Assembly Activity (IC50); BODIPY-FL labelled core protein, 300 μM NaCl, read 6 min after start
T1 construct: fused on or other part: BODIPY-FL maleimide label on the C-terminal Cys150
T1 sequence (P03146 whole entry, looked up, the tested form may be a part): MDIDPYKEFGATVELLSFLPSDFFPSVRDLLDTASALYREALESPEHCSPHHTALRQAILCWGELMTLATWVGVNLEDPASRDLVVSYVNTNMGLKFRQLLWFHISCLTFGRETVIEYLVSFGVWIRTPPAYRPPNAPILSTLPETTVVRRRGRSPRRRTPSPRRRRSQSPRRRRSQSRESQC
Procedure, shortened: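 Purified E. coli-expressed HBV core protein (aa 1-149 plus Cys150), BODIPY-FL maleimide-labelled, at 1.0-2.0 μM in 50 mM HEPES pH 7.5 with 0.5% DMSO was used. Compounds were tested at 8 concentrations (0.5-log dilutions from 100, 31.6 or 10 μM). Assembly was started with NaCl ([…]), and fluorescence quenching was read after 6 min (ex 477/em 525 nm). EC50 was determined by non-linear regression.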

HBV = test: Determination of HBV DNA from the supernatants of HepAD38 cells (anti-HBV activity); assay type: cell-based, hepatitis B virus; conditions: Hepatitis B virus, read-out: Cell Activity (EC50)
Procedure, shortened: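 HepAD38 cells, tetracycline withdrawn to induce HBV, treated with serial half-log compound dilutions; on day 6 HBV DNA purified from filtered supernatant and quantified by real-time PCR against HBV plasmid standards; EC50 from relative copy numbers by non-linear regression, three experiments in triplicate.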

[1] = Cell viability assay (AlamarBlue) in HepAD38 cells; conditions: human
[2] = 144 h, HBV DNA in HepAD38 supernatant, day 6, qPCR

| SMILES | IC50 (HBV core protein) | EC50 (HBV; [2]) | CC50 at 6 days [1] | EC50 (HBV; HePAD38, 144 h) |
| --- | --- | --- | --- | --- |
| CC(O)c1cccc2[nH]c(C(=O)N3CCc4[nH]nc(C(=O)N(C)CCO)c4C3)cc12 (stereo not drawn) [Example 50, N-(2-hydroxyethyl)-5-[4-(1-hydroxyethyl)-1H-indole-2-carbonyl]-N-methyl-1H,4H,5H,6H,7H-pyrazolo[4,3-c]pyridine-3-carboxamide] | < 100 µM | < 100 µM | > 32 µM | – |
| CN(CCO)C(=O)c1n[nH]c2c1CN(C(=O)c1cc3c(Cl)c(F)ccc3[nH]1)CC2 [Example 51, 5-(4-chloro-5-fluoro-1H-indole-2-carbonyl)-N-(2-hydroxyethyl)-N-methyl-1H,4H,5H,6H,7H-pyrazolo[4,3-c]pyridine-3-carboxamide] | < 5 µM | < 1 µM | > 100 µM | – |
| CN(CCO)C(=O)c1n[nH]c2c1CN(C(=O)c1cc3c(F)c(F)ccc3[nH]1)CC2 [Example 52, 5-(4,5-difluoro-1H-indole-2-carbonyl)-N-(2-hydroxyethyl)-N-methyl-1H,4H,5H,6H,7H-pyrazolo[4,3-c]pyridine-3-carboxamide] | < 5 µM | < 1 µM | > 100 µM | – |
| CN(CCO)C(=O)c1n[nH]c2c1CN(C(=O)c1cc3c(F)ccc(F)c3[nH]1)CC2 [Example 53, 5-(4,7-difluoro-1H-indole-2-carbonyl)-N-(2-hydroxyethyl)-N-methyl-1H,4H,5H,6H,7H-pyrazolo[4,3-c]pyridine-3-carboxamide] | < 5 µM | < 1 µM | > 100 µM | – |
| COCCN(C)C(=O)c1n[nH]c2c1CN(C(=O)c1cc3ccccc3[nH]1)CC2 [Example 54, 5-(1H-indole-2-carbonyl)-N-(2-methoxyethyl)-N-methyl-1H,4H,5H,6H,7H-pyrazolo[4,3-c]pyridine-3-carboxamide] | < 5 µM | < 1 µM | > 100 µM | – |
| Cc1cccc2[nH]c(C(=O)N3CCc4[nH]nc(C(=O)N(C)OCCOP(=O)(N[C@@H](C)C(=O)OC(C)C)Oc5ccccc5)c4C3)cc12 (stereo partly drawn) [Example 55, propan-2-yl (2S)-2-({[2-({N-methyl-1-[5-(4-methyl-1H-indole-2-carbonyl)-1H,4H,5H,6H,7H-pyrazolo[4,3-c]pyridin-3-yl]formamido}oxy)ethoxy](phenoxy)phosphoryl}amino)propanoate] | < 5 µM | – | > 32 µM | < 1 µM |
| CC(C)OC(=O)[C@H](C)NP(=O)(OCCON(C)C(=O)c1n[nH]c2c1CN(C(=O)c1cc3c(Cl)cccc3[nH]1)CC2)Oc1ccccc1 (stereo partly drawn) [Example 56, propan-2-yl (2S)-2-({[2-({1-[5-(4-chloro-1H-indole-2-carbonyl)-1H,4H,5H,6H,7H-pyrazolo[4,3-c]pyridin-3-yl]-N-methylformamido}oxy)ethoxy](phenoxy)phosphoryl}amino)propanoate] | < 5 µM | – | > 32 µM | < 1 µM |
| CN(CCO)C(=O)c1n[nH]c2c1CN(C(=O)c1cc3ccc(Cl)cc3[nH]1)CC2 [Example 57, 5-(6-chloro-1H-indole-2-carbonyl)-N-(2-hydroxyethyl)-N-methyl-1H,4H,5H,6H,7H-pyrazolo[4,3-c]pyridine-3-carboxamide] | < 5 µM | < 1 µM | > 100 µM | – |
| CN(CCO)C(=O)c1n[nH]c2c1CN(C(=O)c1cc3c(Cl)cccc3[nH]1)CC2 [Example 58, 5-(4-chloro-1H-indole-2-carbonyl)-N-(2-hydroxyethyl)-N-methyl-1H,4H,5H,6H,7H-pyrazolo[4,3-c]pyridine-3-carboxamide] | < 5 µM | < 1 µM | > 100 µM | – |
| CN(CCO)C(=O)c1n[nH]c2c1CN(C(=O)c1cc3c(C(F)(F)F)cccc3[nH]1)CC2 [Example 59, N-(2-hydroxyethyl)-N-methyl-5-[4-(trifluoromethyl)-1H-indole-2-carbonyl]-1H,4H,5H,6H,7H-pyrazolo[4,3-c]pyridine-3-carboxamide] | < 5 µM | < 1 µM | > 32 µM | – |
| CN(CCO)C(=O)c1n[nH]c2c1CN(C(=O)c1cc3c(Cl)cc(F)cc3[nH]1)CC2 [Example 60, 5-(4-chloro-6-fluoro-1H-indole-2-carbonyl)-N-(2-hydroxyethyl)-N-methyl-1H,4H,5H,6H,7H-pyrazolo[4,3-c]pyridine-3-carboxamide] | < 5 µM | < 1 µM | > 32 µM | – |
| Cc1cc(F)cc2[nH]c(C(=O)N3CCc4[nH]nc(C(=O)N(C)CCO)c4C3)cc12 [Example 61, 5-(6-fluoro-4-methyl-1H-indole-2-carbonyl)-N-(2-hydroxyethyl)-N-methyl-1H,4H,5H,6H,7H-pyrazolo[4,3-c]pyridine-3-carboxamide] | < 5 µM | < 1 µM | > 100 µM | – |
| CCc1cccc2[nH]c(C(=O)N3CCc4[nH]nc(C(=O)N(C)CCO)c4C3)cc12 [Example 62, 5-(4-ethyl-1H-indole-2-carbonyl)-N-(2-hydroxyethyl)-N-methyl-1H,4H,5H,6H,7H-pyrazolo[4,3-c]pyridine-3-carboxamide] | < 5 µM | < 1 µM | > 100 µM | – |
| Cc1cccc2[nH]c(C(=O)N3CCc4[nH]nc(C(=O)N(C)CCO)c4C3)cc12 [Example 63, N-(2-hydroxyethyl)-N-methyl-5-(4-methyl-1H-indole-2-carbonyl)-1H,4H,5H,6H,7H-pyrazolo[4,3-c]pyridine-3-carboxamide] | < 5 µM | < 1 µM | > 100 µM | – |
| CC(C)OC(=O)[C@H](C)NP(=O)(OCCON(C)C(=O)c1n[nH]c2c1CN(C(=O)c1cc3ccccc3[nH]1)CC2)Oc1ccccc1 (stereo partly drawn) [Example 64, propan-2-yl (2S)-2-({[2-({1-[5-(1H-indole-2-carbonyl)-1H,4H,5H,6H,7H-pyrazolo[4,3-c]pyridin-3-yl]-N-methylformamido}oxy)ethoxy](phenoxy)phosphoryl}amino)propanoate] | < 5 µM | – | > 32 µM | < 1 µM |
| CC(C)OC(=O)[C@H](C)NP(=O)(OCCCN(C)C(=O)c1n[nH]c2c1CN(C(=O)c1cc3c(Cl)cccc3[nH]1)CC2)Oc1ccccc1 (stereo partly drawn) [Example 66, propan-2-yl (2S)-2-{[(3-{1-[5-(4-chloro-1H-indole-2-carbonyl)-1H,4H,5H,6H,7H-pyrazolo[4,3-c]pyridin-3-yl]-N-methylformamido}propoxy)(phenoxy)phosphoryl]amino}propanoate] | < 5 µM | – | > 32 µM | < 1 µM |
| CC(C)OC(=O)[C@H](C)NP(=O)(OCCN(C)C(=O)c1n[nH]c2c1CN(C(=O)c1cc3c(Cl)cccc3[nH]1)CC2)Oc1ccccc1 (stereo partly drawn) [Example 67, propan-2-yl (2S)-2-{[(2-{1-[5-(4-chloro-1H-indole-2-carbonyl)-1H,4H,5H,6H,7H-pyrazolo[4,3-c]pyridin-3-yl]-N-methylformamido}ethoxy)(phenoxy)phosphoryl]amino}propanoate] | < 5 µM | – | > 32 µM | < 1 µM |
| CC(C)OC(=O)[C@H](C)NP(=O)(OCCCN(C)C(=O)c1n[nH]c2c1CN(C(=O)c1cc3ccccc3[nH]1)CC2)Oc1ccccc1 (stereo partly drawn) [Example 70, propan-2-yl (2S)-2-{[(3-{1-[5-(1H-indole-2-carbonyl)-1H,4H,5H,6H,7H-pyrazolo[4,3-c]pyridin-3-yl]-N-methylformamido}propoxy)(phenoxy)phosphoryl]amino}propanoate] | < 5 µM | – | > 32 µM | 1 to 25 µM |
| CC(C)OC(=O)[C@H](C)NP(=O)(OCCN(C)C(=O)c1n[nH]c2c1CN(C(=O)c1cc3ccccc3[nH]1)CC2)Oc1ccccc1 (stereo partly drawn) [Example 71, propan-2-yl (2S)-2-{[(2-{1-[5-(1H-indole-2-carbonyl)-1H,4H,5H,6H,7H-pyrazolo[4,3-c]pyridin-3-yl]-N-methylformamido}ethoxy)(phenoxy)phosphoryl]amino}propanoate] | 5 to 10 µM | – | > 32 µM | 1 to 25 µM |
| CN(c1n[nH]c2c1CN(C(=O)c1cc3ccccc3[nH]1)CC2)S(C)(=O)=O [Example 74, N-[5-(1H-indole-2-carbonyl)-1H,4H,5H,6H,7H-pyrazolo[4,3-c]pyridin-3-yl]-N-methylmethanesulfonamide] | < 100 µM | 1 to 25 µM | > 100 µM | – |
| CN(C)c1n[nH]c2c1CN(C(=O)c1cc3ccccc3[nH]1)CC2 [Example 75, 5-(1H-indole-2-carbonyl)-N,N-dimethyl-1H,4H,5H,6H,7H-pyrazolo[4,3-c]pyridin-3-amine] | 5 to 10 µM | < 1 µM | > 100 µM | – |
| O=C(c1cc2ccccc2[nH]1)N1CCc2[nH]nc(NCC3CC3)c2C1 [Example 79, N-(cyclopropylmethyl)-5-(1H-indole-2-carbonyl)-1H,4H,5H,6H,7H-pyrazolo[4,3-c]pyridin-3-amine] | 5 to 10 µM | 1 to 25 µM | > 100 µM | – |
| CCNc1n[nH]c2c1CN(C(=O)c1cc3ccccc3[nH]1)CC2 [Example 80, N-ethyl-5-(1H-indole-2-carbonyl)-1H,4H,5H,6H,7H-pyrazolo[4,3-c]pyridin-3-amine] | < 100 µM | 1 to 25 µM | > 100 µM | – |
| O=C(c1cc2ccccc2[nH]1)N1CCc2[nH]nc(NCC3CCOCC3)c2C1 [Example 81, 5-(1H-indole-2-carbonyl)-N-[(oxan-4-yl)methyl]-1H,4H,5H,6H,7H-pyrazolo[4,3-c]pyridin-3-amine] | < 100 µM | 1 to 25 µM | > 100 µM | – |
